The values below come from ChEMBL document CHEMBL1135726, “Novel antagonists acting at the P2Y(1) purinergic receptor: synthesis and conformational analysis using potentiometric and nuclear magnetic resonance titration techniques” (J Med Chem, 2002).

Broadly, the IC50 is the point on the concentration scale where inhibition reaches its midpoint.

Active and inactive are the calls of the source. The calls are words filed in the database; no cut-off is given here.

The species named for one assay is Homo sapiens. The assay is described as follows: Inhibitory concentration required to inhibit intracellular [Ca2+] rise induced in washed human platelets by 5 uM ADP. Format: functional.
The target of another assay is P2Y purinoceptor 1 (Homo sapiens, UniProt P47900). The assay is described as follows: pA2 value was evaluated against P2Y purinoceptor 1. The following applies: read-out: pA2 (converted).
The target in assay [1] is P2X purinoceptor 1 (Rattus norvegicus) (UniProt P47824). The assay is described as follows: Affinity at P2X purinoceptor 1 (P2X1) and the value is expressed as IC50.
The target of assay [2] is P2X purinoceptor 2 (Rattus norvegicus) (UniProt P49653). The assay is described as follows: KB value was evaluated at the rat P2X purinoceptor 2 (P2X2); IA menas inactive.
For assay [3], the target named is P2X purinoceptor 4 (Rattus norvegicus) (UniProt P51577). The assay is described as follows: KB value was evaluated at the rat P2X purinoceptor 4 (P2X4); IA menas inactive.
P2X purinoceptor 4 (Rattus norvegicus), sequence (P51577 whole entry, looked up): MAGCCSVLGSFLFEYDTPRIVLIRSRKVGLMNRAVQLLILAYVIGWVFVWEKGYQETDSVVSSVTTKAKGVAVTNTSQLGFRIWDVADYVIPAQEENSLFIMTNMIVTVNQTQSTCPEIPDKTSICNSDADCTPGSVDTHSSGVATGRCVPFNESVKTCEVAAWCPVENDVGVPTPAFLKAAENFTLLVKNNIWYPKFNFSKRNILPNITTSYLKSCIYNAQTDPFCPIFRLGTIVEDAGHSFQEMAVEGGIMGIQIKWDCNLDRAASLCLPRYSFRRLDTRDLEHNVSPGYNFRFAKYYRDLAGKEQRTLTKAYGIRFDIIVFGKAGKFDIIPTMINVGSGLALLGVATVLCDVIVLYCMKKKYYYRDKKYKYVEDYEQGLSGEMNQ

P2Y purinoceptor 1, sequence (P47900 whole entry): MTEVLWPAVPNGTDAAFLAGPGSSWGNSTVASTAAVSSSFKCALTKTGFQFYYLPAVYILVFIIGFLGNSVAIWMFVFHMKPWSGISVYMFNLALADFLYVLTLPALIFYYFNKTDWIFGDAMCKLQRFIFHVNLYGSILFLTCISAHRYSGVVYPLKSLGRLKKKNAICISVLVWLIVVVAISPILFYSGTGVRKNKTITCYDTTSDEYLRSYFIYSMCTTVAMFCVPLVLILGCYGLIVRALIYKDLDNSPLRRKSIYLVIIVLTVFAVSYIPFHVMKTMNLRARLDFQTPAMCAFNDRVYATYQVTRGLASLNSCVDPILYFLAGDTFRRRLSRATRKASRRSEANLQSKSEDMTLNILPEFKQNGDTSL
P2X purinoceptor 1 (Rattus norvegicus), sequence (P47824 whole entry, looked up): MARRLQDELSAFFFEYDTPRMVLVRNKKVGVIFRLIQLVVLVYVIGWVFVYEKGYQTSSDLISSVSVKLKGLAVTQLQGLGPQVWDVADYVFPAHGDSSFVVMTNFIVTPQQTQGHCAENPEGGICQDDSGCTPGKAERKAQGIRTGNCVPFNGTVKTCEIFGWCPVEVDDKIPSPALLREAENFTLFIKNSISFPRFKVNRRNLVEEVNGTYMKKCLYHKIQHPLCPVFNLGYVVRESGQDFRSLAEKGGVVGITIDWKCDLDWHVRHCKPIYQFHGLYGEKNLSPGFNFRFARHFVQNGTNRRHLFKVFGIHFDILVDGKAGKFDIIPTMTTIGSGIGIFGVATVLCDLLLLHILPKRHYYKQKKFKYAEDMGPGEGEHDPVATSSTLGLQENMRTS
P2X purinoceptor 2 (Rattus norvegicus), sequence (P49653 whole entry, looked up): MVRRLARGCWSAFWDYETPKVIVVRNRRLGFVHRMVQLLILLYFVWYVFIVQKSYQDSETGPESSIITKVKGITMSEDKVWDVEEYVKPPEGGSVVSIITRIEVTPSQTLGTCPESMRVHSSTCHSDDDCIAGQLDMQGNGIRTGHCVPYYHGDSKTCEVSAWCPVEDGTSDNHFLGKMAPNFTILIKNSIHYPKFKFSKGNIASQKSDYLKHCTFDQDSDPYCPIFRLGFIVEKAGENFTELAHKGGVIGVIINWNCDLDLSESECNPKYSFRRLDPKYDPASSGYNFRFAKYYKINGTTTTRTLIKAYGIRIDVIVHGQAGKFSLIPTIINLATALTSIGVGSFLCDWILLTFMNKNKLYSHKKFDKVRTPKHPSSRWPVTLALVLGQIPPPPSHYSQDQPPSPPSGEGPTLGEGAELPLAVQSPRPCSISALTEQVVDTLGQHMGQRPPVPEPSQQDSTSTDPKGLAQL

For `CNc1nc(C)nc2c1ncn2[C@H]1C[C@H](OP(=O)(O)O)[C@@H](COP(=O)(O)O)O1`, the Inhibition in the assay filed under Homo sapiens amounted to 100 µM. The Kb on P2Y purinoceptor 1 is 77.6 nM.

The molecule `CNc1ncnc2c1ncn2[C@H]1C[C@H](OP(=O)(O)O)[C@@H](COP(=O)(O)O)O1` gave an IC50 in assay [1] of 1150 nM. Also, the IA result in assay [2] and in assay [3] was “inactive” each time. In addition, on P2Y purinoceptor 1, the Kb was 282 nM.
